Laboratory results taken from the supplement of paper PMC9912026.

Test system: A375_NRAS_Q61K_DOXind
Experiment: pERK immunofluorescence relative to uninduced (no doxycycline), no-drug control; higher = more ERK phosphorylation (less pathway inhibition)
Conditions: drug treatment time 24 h, doxycycline pre-induction time 24 h, vemurafenib background 0 µM
Experimental: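 pERK was measured by immunofluorescence with FLAG-negative cells excluded. Averages of 2 technical replicates.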

CCCS(=O)(=O)Nc1ccc(F)c(C(=O)c2c[nH]c3ncc(-c4ccc(Cl)cc4)cc23)c1F [Vemurafenib] + O=C(c1ccc(F)c(F)c1Nc1ccc(I)cc1F)N1CC(O)([C@@H]2CCCCN2)C1 [Cobimetinib]
pERK immunofluorescence
Conditions | drug B concentration 0 µM | drug B concentration 0.0001 µM | drug B concentration 0.0003162 µM | drug B concentration 0.001 µM | drug B concentration 0.00316228 µM | drug B concentration 0.01 µM | drug B concentration 0.0316228 µM | drug B concentration 0.1 µM | drug B concentration 0.316228 µM | drug B concentration 1 µM
drug A concentration 0 µM, doxycycline 0 ng/mL | – | 0.771 | 0.877 | 0.692 | 0.269 | 0.0826 | 0.0415 | 0.0295 | 0.0213 | 0.0214
drug A concentration 0 µM, doxycycline 1000 ng/mL | – | 1.26 | 1.36 | 1.23 | 1.11 | 1.03 | 0.769 | 0.29 | 0.0675 | 0.0264
drug A concentration 0.000316 µM, doxycycline 0 ng/mL | 0.894 | 0.847 | 0.89 | 0.663 | 0.253 | 0.078 | 0.0417 | 0.0283 | 0.023 | 0.0216
drug A concentration 0.000316 µM, doxycycline 1000 ng/mL | 1.23 | 1.24 | 1.3 | 1.22 | 1.11 | 1.06 | 0.763 | 0.322 | 0.073 | 0.0271
drug A concentration 0.001 µM, doxycycline 0 ng/mL | 0.854 | 0.807 | 0.827 | 0.652 | 0.277 | 0.0707 | 0.0373 | 0.0262 | 0.0201 | 0.0201
drug A concentration 0.001 µM, doxycycline 1000 ng/mL | 1.15 | 1.21 | 1.26 | 1.29 | 1.15 | 1.08 | 0.761 | 0.326 | 0.0778 | 0.0269
drug A concentration 0.00316 µM, doxycycline 0 ng/mL | 0.761 | 0.816 | 0.887 | 0.555 | 0.229 | 0.0664 | 0.0382 | 0.0255 | 0.0206 | 0.0196
drug A concentration 0.00316 µM, doxycycline 1000 ng/mL | 1.12 | 1.17 | 1.31 | 1.25 | 1.13 | 1.01 | 0.763 | 0.311 | 0.0715 | 0.0264
drug A concentration 0.01 µM, doxycycline 0 ng/mL | 0.697 | 0.719 | 0.752 | 0.525 | 0.207 | 0.0636 | 0.0366 | 0.0258 | 0.0201 | 0.0203
drug A concentration 0.01 µM, doxycycline 1000 ng/mL | 1.16 | 1.21 | 1.28 | 1.31 | 1.21 | 1.02 | 0.741 | 0.32 | 0.0751 | 0.0284
drug A concentration 0.0316 µM, doxycycline 0 ng/mL | 0.485 | 0.57 | 0.578 | 0.357 | 0.142 | 0.0532 | 0.0338 | 0.0248 | 0.0205 | 0.0197
drug A concentration 0.0316 µM, doxycycline 1000 ng/mL | 1.08 | 1.11 | 1.22 | 1.27 | 1.05 | 0.964 | 0.683 | 0.254 | 0.0677 | 0.0258
drug A concentration 0.1 µM, doxycycline 0 ng/mL | 0.316 | 0.286 | 0.274 | 0.161 | 0.0758 | 0.0428 | 0.0306 | 0.0226 | 0.0207 | 0.0198
drug A concentration 0.1 µM, doxycycline 1000 ng/mL | 1.2 | 1.18 | 1.31 | 1.21 | 1.12 | 1.05 | 0.766 | 0.294 | 0.0731 | 0.0266
drug A concentration 0.316228 µM, doxycycline 0 ng/mL | 0.107 | 0.0916 | 0.1 | 0.0715 | 0.0458 | 0.0352 | 0.0271 | 0.0216 | 0.0197 | 0.019
drug A concentration 0.316228 µM, doxycycline 1000 ng/mL | 1.17 | 1.21 | 1.26 | 1.25 | 1.15 | 1.08 | 0.736 | 0.279 | 0.069 | 0.0251
drug A concentration 1 µM, doxycycline 0 ng/mL | 0.0542 | 0.0554 | 0.0566 | 0.0507 | 0.0389 | 0.0323 | 0.0252 | 0.0202 | 0.019 | 0.0186
drug A concentration 1 µM, doxycycline 1000 ng/mL | 1.12 | 1.21 | 1.32 | 1.26 | 1.15 | 1.06 | 0.675 | 0.212 | 0.0608 | 0.0248
drug A concentration 3.16 µM, doxycycline 0 ng/mL | 0.0469 | 0.0457 | 0.0485 | 0.044 | 0.038 | 0.0293 | 0.0233 | 0.02 | 0.0191 | 0.0188
drug A concentration 3.16 µM, doxycycline 1000 ng/mL | 1.07 | 1.14 | 1.22 | 1.27 | 1.12 | 0.941 | 0.478 | 0.129 | 0.0468 | 0.0219
drug A concentration 10 µM, doxycycline 0 ng/mL | 0.0377 | 0.0388 | 0.0357 | 0.0351 | 0.0307 | 0.0237 | 0.0219 | 0.0199 | 0.019 | 0.0193
drug A concentration 10 µM, doxycycline 1000 ng/mL | 0.905 | 1.01 | 1.04 | 1.02 | 0.868 | 0.553 | 0.145 | 0.0465 | 0.0237 | 0.0194
